Experiments:
[1] = target: T1, MK2 (Homo sapiens, UniProt P49137); test: MK2 radiometric kinase assay; format: biochemical
T1 construct: purchased Millipore (IC50 Profiler Express / KinaseProfiler service)
From the text: A commercial radiometric assay service was used to test the specificity and potency of MMI-0100 ([…]; SEQ ID NO: 1) by measuring its half maximal inhibitory concentrations (IC50). This quantitative assay measures how much MK2 inhibitor (MMI-0100; […] (SEQ ID NO: 1)) is needed to inhibit 50% of a given biological process or component of a process (i.e., an enzyme, cell, or cell receptor). Specifically, in these assays, a positively charged substrate is phosphorylated with a radiolabeled phosphate group from an ATP if the kinase is not inhibited by an inhibitor peptide. The positively charged substrate then is attracted to a negatively charged filter membrane, quantified with a scintillation counter, and compared to a 100% activity control. ATP concentrations within 15 μM of the apparent Km for ATP were chosen since an ATP concentration near the Km may allow for the kinases to have the same relative amount of phosphorylation activity. […]
For the MK2 radiometric assay, 5-10 mU of MK2 was incubated with 50 mM Na b-glycerophosphate pH 7.5, 0.1 mM EGTA, 30 μM KKLNRTLSVA (SEQ ID NO: 34; a substrate peptide for MK2), 10 mM MgAcetate, and 10 μM of [y-^33P-ATP] in a final reaction volume of 25 μl. […] The washed P30 filtermat was dried and its radioactivity was measured by scintillation counter.
IC50 values for inhibitor peptides were determined using Millipore's IC50 Profiler Express service. […]

[2] = target: T2, MKK6 (Homo sapiens, UniProt P52564); test: MKK6 radiometric kinase assay; format: biochemical; details: peptide 100 μM
T2 construct: purchased Millipore (KinaseProfiler service)
T2 sequence (P52564 whole entry, species assumed): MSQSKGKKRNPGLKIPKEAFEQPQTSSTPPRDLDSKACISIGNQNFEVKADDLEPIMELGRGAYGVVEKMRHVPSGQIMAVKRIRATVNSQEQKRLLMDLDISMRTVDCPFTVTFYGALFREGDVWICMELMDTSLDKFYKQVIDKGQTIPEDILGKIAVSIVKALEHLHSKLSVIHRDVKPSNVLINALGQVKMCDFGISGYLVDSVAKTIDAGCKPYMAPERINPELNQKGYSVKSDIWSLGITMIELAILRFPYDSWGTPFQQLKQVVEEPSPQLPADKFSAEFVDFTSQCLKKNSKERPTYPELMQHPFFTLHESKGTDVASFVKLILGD
From the text: A commercial radiometric assay service was used to test the specificity and potency of MMI-0100 ([…]; SEQ ID NO: 1) by measuring its half maximal inhibitory concentrations (IC50). This quantitative assay measures how much MK2 inhibitor (MMI-0100; […] (SEQ ID NO: 1)) is needed to inhibit 50% of a given biological process or component of a process (i.e., an enzyme, cell, or cell receptor). Specifically, in these assays, a positively charged substrate is phosphorylated with a radiolabeled phosphate group from an ATP if the kinase is not inhibited by an inhibitor peptide. The positively charged substrate then is attracted to a negatively charged filter membrane, quantified with a scintillation counter, and compared to a 100% activity control. ATP concentrations within 15 μM of the apparent Km for ATP were chosen since an ATP concentration near the Km may allow for the kinases to have the same relative amount of phosphorylation activity. The individual conditions for each radiometric assay are as follows.
The reaction was initiated by adding the MgATP. After incubation for 40 minutes at room temperature, 5 μl of the incubation mix was used to initiate the p38MAPK radiometric assay described above.
IC50 values for inhibitor peptides were determined using Millipore's IC50 Profiler Express service. The IC50 value was estimated from a 10-point curve of one-half log dilutions. […]

[3] = Observation of toxicity, tissue erosion or necrosis
[4] = system: mouse lung endothelial cells (MLEC); test: Murine endothelial cell apoptosis, annexin V flow cytometry; format: cell-based; details: 24 hours; any dose
Procedure: The apoptotic effect of MMI-0100 ([…]; SEQ ID NO: 1) on mouse lung endothelial cells (MLEC) was measured at 24 hours after MMI-0100 ([…]; SEQ ID NO: 1) treatment. MLEC were removed from the tissue culture plate by trypsin, and re-suspended at a concentration of 1.0×10^6 cells/ml. Apoptotic cells were detected by AlexaFluor® 488 annexin V/Dead Cell Apoptosis Kit (Invitrogen) using flow cytometry sorting analysis.

T1 sequence (P49137 whole entry, species assumed): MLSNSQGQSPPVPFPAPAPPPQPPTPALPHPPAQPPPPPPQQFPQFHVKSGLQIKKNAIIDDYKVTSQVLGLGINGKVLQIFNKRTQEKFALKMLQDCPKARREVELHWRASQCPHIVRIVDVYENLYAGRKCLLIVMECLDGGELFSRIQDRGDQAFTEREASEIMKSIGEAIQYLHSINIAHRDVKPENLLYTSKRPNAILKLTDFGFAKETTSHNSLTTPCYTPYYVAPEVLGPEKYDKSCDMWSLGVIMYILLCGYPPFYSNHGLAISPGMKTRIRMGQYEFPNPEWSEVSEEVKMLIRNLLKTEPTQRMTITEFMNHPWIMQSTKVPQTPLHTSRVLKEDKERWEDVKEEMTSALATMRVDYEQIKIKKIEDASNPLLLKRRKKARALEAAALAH

YARAAARQARAKALARQLGVAA [MMI-0100]
inhibition of MK2 activity ([1]; concentration used for specificity profiling (Table 2)): > 95% | Percent Activity, MK2 ([1]; peptide 100 μM): <5% | Percent Activity, MKK6 [2]: 50% | evidence of toxicity, tissue erosion, or necrosis [3]: did not show any evidence of toxicity, tissue erosion, or necrosis | EC apoptosis [4]: did not induce EC apoptosis at any dose

Source: patent publication US20110288036A1, “Methods for Treating or Preventing Vascular Graft Failure” (priority 2010, published 2011)
